Reference: US8846606B2, “Method and drug composition for treating septic shock hypotension” (priority 2010, dated 2014)
Read-outs that look alike come from different tables or passages of the source.

Columns and labels:
[1] = tested on: alpha-1 messengerRNA (mRNA); conditions: in vitro, cited from earlier work
alpha-1 receptors [2] = conditions: in vitro; cited from earlier work
[3] = tested on: patients presenting with moderate septic shock; conditions: cited from earlier work
[4] = tested on: patients presenting with septic shock
Excerpt: (§1) In these patients, formal challenges were undertaken with noradrenaline or dobutamine boluses to rise the SBP by 25 mm Hg or the HR by 20 bpmin, respectively.

[5] = tested on: septic shock in surgical patients
Excerpt: as §1

[6] = tested on: septic shock in a patient; conditions: cited from earlier work
tetraplegic patients = conditions: cited from earlier work
[7] = tested on: patients presenting with severe idiopathic hypotension; conditions: clonidine 0.4-0.8 mg p.o.; cited from earlier work
decerebrated rats = conditions: catecholamine-depleted rats; cited from earlier work
[8] = tested on: beta receptors located on lymphocytes; conditions: cited from earlier work
hypertensive patients [9] = conditions: after clonidine 0.2-0.4 mg/day for 6-8 weeks, cited from earlier work
[10] = tested on: conscious or anesthetized patients; conditions: clonidine 5 μg.kg−1 p.o.; cited from earlier work
[11] = tested on: awake and anesthetized patients; conditions: phenylephrine bolus 2 μg.kg−1; control +17 mm Hg; cited from earlier work
aortic surgery patients = conditions: cited from earlier work
[12] = tested on: major abdominal surgery patients; conditions: cited from earlier work
[13] = tested on: liver transplant patients; conditions: cited from earlier work
animals = conditions: cited from earlier work
[14] = tested on: beta-1 and alpha1b-receptors; conditions: selected areas of the central nervous system; cited from earlier work
hypertensive patients [15] = conditions: cited from earlier work
alpha-1 receptors [16] = conditions: 72 h administration; accentuated in hypertensive vs normotensive rats; cited from earlier work
alpha-2 receptors = conditions: 72 h administration; accentuated in hypertensive vs normotensive rats; cited from earlier work
beta receptor = conditions: cited from earlier work
[17] = tested on: rats submitted to sepsis (lipopolysaccharide); conditions: septic rats as compared to control animals; cited from earlier work
[18] = tested on: alpha-1A / beta-2 adrenergic receptor; conditions: unless beta-2 adrenergic receptor is activated by isoproterenol; cited from earlier work
[19] = clonidine plus state of the art vs state of the art only
[20] = surgical patients pre-treated with clonidine
[21] = clonidine 2 μg.kg−1.h−1 i.v. over 10 min, after 30 to 60 min

CC(C)NCC(O)COc1cccc2ccccc12 (stereo not shown) [propranolol]
effect on the adrenaline-evoked increase in alpha-1 mRNA [1]: suppresses
effect on the decrease in alpha-1 binding (alpha-1 receptors [2]): do not affect

O=[N+]([O-])OCC(CO[N+](=O)[O-])O[N+](=O)[O-] [nitroglycerin]
patients discharged alive ([3]; nitroglycerin bolus 0.5 mg then infusion 2 mg.h−1 (0.5-4 mg.h−1)): 7 out of 8
peripheral blood flow ([3]; nitroglycerin bolus 0.5 mg then infusion 2 mg.h−1): improved

CNC[C@H](O)c1ccc(O)c(O)c1 [adenaline]
alpha-1 messengerRNA (mRNA) ([1]; short term (2-8 h)): increases

Clc1cccc(Cl)c1N=C1NCCN1 [clonidine]
lactate plasma concentration [4, 19]: more rapid reduction
superior vena cava oxygen saturation [4, 19]: faster improvement
NA requirements needed to support the BP to an acceptable level (MAP>65 mm Hg or adequate diuresis) ([4]; over 24 h, clonidine plus state of the art): reduced dramatically
total withdrawal of NA infusion ([4]; with acceptable diuresis and SBP): 48 to 72 h
bolus dose of NA required to increase the SBP by 25 mm Hg, lowered by ([4]; within 24 h of state of the art treatment combined to clonidine infusion (1 μg.kg−1.h−1 for 24 h), vs baseline reactivity upon completion of initial resuscitation): 50 to 75%
capillary refill upon shock ([5]; despite low BP, no peripheral mottling): very good
recovery from septic shock [5, 20]: unimpaired
response to vasopressors and inotropic agents [5, 20]: not blunted
plasma clonidine concentrations (therapeutic range) ([6]; patient pre-treated with clonidine): 1 to 2 ng/mL
rise in plasma catecholamines concentrations ([6]; upon septic shock, plasma clonidine in the therapeutic range): 5-10 fold
BP (tetraplegic patients): does not lower
plasma catecholamines concentrations (tetraplegic patients): does not lower
pressor response to noradrenaline or phenylephrine (tetraplegic patients): Neither does clonidine modify
increase of SBP [7]: 40-70 mm Hg
resting BP (decerebrated rats): “considerably” elevates
beta receptors affinity [8, 21]: decrease
beta receptors density on lymphocytes [8, 21]: increase
beta receptors, effect in vitro ([8]; in vitro): No difference
CD25: chronotropic dose of isoproterenol to increase HR by 25 bpmin (hypertensive patients [9]; from 2.6 μg, ns): 1.9 µg
PD20: pressor dose of phenylephrine to increase BP by 20 mm Hg (hypertensive patients [9]; from 96 μg, n=30, p<0.05): 39 µg
response to ephedrine [10]: increased
pressor response above baseline SBP [11]: +31 mm Hg
chronotropic reactivity to isoproterenol (aortic surgery patients): increased
vascular reactivity to phenylephrine [12]: increased
nadir of systolic and diastolic pressure upon liver declamping ([13]; clonidine group as referred to placebo group): higher
noradrenaline requirements ([13]; liver transplant): lowered

COC(=O)[C@H]1[C@H]2C[C@@H]3c4[nH]c5cc(OC)ccc5c4CCN3C[C@H]2C[C@@H](OC(=O)c2cc(OC)c(OC)c(OC)c2)[C@@H]1OC [reserpine]
pressor response to NA and phenylphrine (PE) (animals): enhances
beta-1 and alpha1b-receptors binding [14]: increases

Cc1ccc(N(CC2=NCCN2)c2cccc(O)c2)cc1 [phentolamine]
effect on the adrenaline-evoked increase in alpha-1 mRNA [1]: unaffected
effect on the decrease in alpha-1 binding (alpha-1 receptors [2]): suppressed

C[C@](N)(Cc1ccc(O)c(O)c1)C(=O)O [alpha-methyldopa]
duration of the pressor response to NA (hypertensive patients [15]): prolonged
pressor response to NA (hypertensive patients [15]): increase
central regulation of alpha-1 receptors (alpha-1 receptors [16]): up-regulation
central regulation of alpha-2 receptors (alpha-2 receptors): down regulation

CC(CCc1ccc(O)cc1)NCCc1ccc(O)c(O)c1 (stereo not shown) [dobutamine]
change in heart rate (HR) on dobutamine challenge (beta receptor; septic patients): +12 bpmin
change in heart rate (HR) on dobutamine challenge (beta receptor; septic shock patients, 10 μg.kg−1.min−1): +3 bpmin

NC[C@H](O)c1ccc(O)c(O)c1 [NA, noradrenaline]
blood pressure response to NA (vascular reactivity) reduced by a factor [17]: 5
intracellular calcium [18]: do not increase
